From patent US9315458B2, “Nitrogen-containing heterocyclic compound” (Takeda Pharmaceutical Company Limited, priority 2014, dated 2016)

Target: T1, human M1 receptor (hCHRM1) (Homo sapiens, UniProt P11229)
T1 construct: expressed in transfected cells
T1 sequence (P11229 1-460): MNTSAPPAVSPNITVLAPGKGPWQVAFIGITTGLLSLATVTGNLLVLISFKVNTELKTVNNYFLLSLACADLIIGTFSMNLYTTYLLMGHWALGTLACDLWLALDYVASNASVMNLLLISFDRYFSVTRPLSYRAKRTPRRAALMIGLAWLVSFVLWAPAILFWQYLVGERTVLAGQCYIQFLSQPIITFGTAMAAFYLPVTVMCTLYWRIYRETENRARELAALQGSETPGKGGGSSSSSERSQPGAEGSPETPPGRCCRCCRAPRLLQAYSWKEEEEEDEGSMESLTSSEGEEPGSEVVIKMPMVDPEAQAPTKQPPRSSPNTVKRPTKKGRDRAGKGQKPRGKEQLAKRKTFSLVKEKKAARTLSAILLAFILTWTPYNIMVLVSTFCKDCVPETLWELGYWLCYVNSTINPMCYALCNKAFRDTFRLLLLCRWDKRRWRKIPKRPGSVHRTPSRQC
Test: Measurement of M1 receptor positive allosteric modulator (M1PAM) activity, calcium fluorescence (FLIPRtetra) with acetylcholine at EC20
Type: cell-based
Settings: for activity (%) at 10 μM: 10 μM test compound, 100% = acetylcholine 1 μM, 0% = DMSO, acetylcholine at EC20; for EC50: inflection point of concentration-dependent curve, CHO-K1 cells expressing hCHRM1, acetylcholine at EC20 (final 0.6-0.8 nM), read-out: IP value
Method in brief: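 CHO-K1 cells stably expressing hCHRM1, Fluo-4 AM loaded; compound added with acetylcholine at EC20 (final 0.6-0.8 nM), fluorescence read 1 min. Activity normalised to 1 μM acetylcholine (100%) and DMSO (0%); IP values taken as inflection point of the concentration-response curve.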

SMILES | activity (%) at 10 μM [%] | EC50 [nM]
COc1ccc(Cc2cc3c(c(C)c2C)CN([C@H]2COCC[C@@H]2O)C3=O)cc1 (racemic) [Example 165, rac-2-(trans-4-hydroxytetrahydro-2H-pyran-3-yl)-6-(4-methoxybenzyl)-4,5-dimethyl-2,3-dihydro-1H-isoindol-1-one] | 103 | 36
Cc1c(Cc2ccc(-n3cccn3)cc2)cc2c(c1Cl)CN([C@H]1CCC[C@@H]1O)C2=O (racemic) [Example 102, rac-4-chloro-2-(trans-2-hydroxycyclopentyl)-5-methyl-6-(4-(1H-pyrazol-1-yl)benzyl)isoindolin-1-one] | 91 | 13
Cn1cc(-c2ccc(Cc3cc4c(cc3C3CC3)CN([C@H]3CCC[C@@H]3O)C4=O)cc2)nn1 (racemic) [Example 64, rac-5-cyclopropyl-2-(trans-2-hydroxycyclopentyl)-6-(4-(1-methyl-1H-1,2,3-triazol-4-yl)benzyl)isoindolin-1-one] | 104 | 22
COc1ccc(Cc2cc3c(c(Cl)c2C)CN([C@H]2CCCC[C@@H]2O)C3=O)cc1 [Example 151, 4-chloro-2-((1S,2S)-2-hydroxycyclohexyl)-6-(4-methoxybenzyl)-5-methylisoindolin-1-one] | 92 | 16
COc1ccc(Cc2cc3c(c(C)c2C)CN([C@H]2COCC[C@@H]2O)C3=O)cc1F [Example 158, 6-(3-fluoro-4-methoxybenzyl)-2-[(3S,4S)-4-hydroxytetrahydro-2H-pyran-3-yl]-4,5-dimethyl-2,3-dihydro-1H-isoindol-1-one] | 111 | 28
CCc1cc2c(cc1Cc1ccc(-c3ccn(C)n3)cc1)C(=O)N([C@H]1COCC[C@@H]1O)C2 [Example 116, 5-ethyl-2-[(3S,4S)-4-hydroxytetrahydro-2H-pyran-3-yl]-6-[4-(1-methyl-1H-pyrazol-3-yl)benzyl]-2,3-dihydro-1H-isoindol-1-one] | 111 | 6.1
Cc1c(Cc2ccc(-n3cccn3)cc2)cc2c(c1Cl)CN(CC(C)(C)O)C2=O [Example 132, 4-chloro-2-(2-hydroxy-2-methylpropyl)-5-methyl-6-(4-(1H-pyrazol-1-yl)benzyl)isoindolin-1-one] | 87 | 7.3
CCc1cc2c(cc1Cc1ccc(-c3cn(C)nn3)cc1)C(=O)N([C@H]1CCC[C@@H]1O)C2 (racemic) [Example 106, rac-5-ethyl-2-(trans-2-hydroxycyclopentyl)-6-(4-(1-methyl-1H-1,2,3-triazol-4-yl)benzyl)isoindolin-1-one] | 92 | 11
Cc1c(Cc2ccc(C#N)cc2)cc2c(c1C)CN([C@H]1CCCC[C@@H]1O)C2=O [Example 155, 4-((2-((1S,2S)-2-hydroxycyclohexyl)-6,7-dimethyl-3-oxo-2,3-dihydro-1H-isoindol-5-yl)methyl)benzonitrile] | 100 | 7.1
COc1c(Cc2ccc(-n3cccn3)cc2)cc2c(c1F)CN([C@H]1CCCC[C@@H]1O)C2=O (racemic) [Example 97, rac-4-fluoro-2-(trans-2-hydroxycyclohexyl)-5-methoxy-6-(4-(1H-pyrazol-1-yl)benzyl)isoindolin-1-one] | 96 | 5.3
Cc1c(Cc2ccc(-c3cnn(C)c3)cc2)cc2c(c1C)CN([C@H]1CCC[C@@H]1O)C2=O (racemic) [Example 69, rac-2-(trans-2-hydroxycyclopentyl)-4,5-dimethyl-6-(4-(1-methyl-1H-pyrazol-4-yl)benzyl)isoindolin-1-one] | 95 | 13
CCc1cc2c(cc1Cc1ccc(OC)cc1)C(=O)N([C@H]1COCC[C@@H]1O)C2 [Example 148, 5-ethyl-2-[(3S,4S)-4-hydroxytetrahydro-2H-pyran-3-yl]-6-(4-methoxybenzyl)-2,3-dihydro-1H-isoindol-1-one] | 89 | 63
Cc1c(Cc2ccc(-c3cnn(C)c3)cc2)cc2c(c1C)CN([C@H]1CCCC[C@@H]1O)C2=O (racemic) [Example 89, rac-2-(trans-2-hydroxycyclohexyl)-4,5-dimethyl-6-(4-(1-methyl-1H-pyrazol-4-yl)benzyl)isoindolin-1-one] | 94 | 5.7
CNC(=O)c1ccc(Cc2cc3c(c(C)c2C)CN([C@H]2CCC[C@@H]2O)C3=O)cc1F [Example 123, 2-fluoro-4-((2-((1S,2S)-2-hydroxycyclopentyl)-6,7-dimethyl-3-oxo-2,3-dihydro-1H-isoindol-5-yl)methyl)-N-methylbenzamide] | 90 | 2.1
Cc1c(Cc2ccc(-c3ccn(C)n3)cc2)cc2c(c1F)CN([C@H]1CCC[C@@H]1O)C2=O [Example 111, 4-fluoro-2-((1S,2S)-2-hydroxycyclopentyl)-5-methyl-6-(4-(1-methyl-1H-pyrazol-3-yl)benzyl)isoindolin-1-one] | 103 | 26
O=C1c2cc(Cc3ccc(-n4cccn4)cc3)c(C(F)(F)F)c(Cl)c2CN1[C@H]1CCC[C@@H]1O (racemic) [Example 88, rac-4-chloro-2-(trans-2-hydroxycyclopentyl)-6-(4-(1H-pyrazol-1-yl)benzyl)-5-(trifluoromethyl)isoindolin-1-one] | 98 | 85
Cc1c(Cc2ccc(-c3cnn(C)c3)cc2)cc2c(c1C)CN(CC1CCCO1)C2=O (stereo not drawn) [Example 84, 4,5-dimethyl-6-(4-(1-methyl-1H-pyrazol-4-yl)benzyl)-2-(tetrahydrofuran-2-ylmethyl)isoindolin-1-one] | 104 | 52
Cc1c(Cc2ccc(-n3cccn3)cc2F)cc2c(c1C)CN(C[C@@H]1CCCO1)C2=O [Example 115, 6-(2-fluoro-4-(1H-pyrazol-1-yl)benzyl)-4,5-dimethyl-2-((2S)-tetrahydrofuran-2-ylmethyl)isoindolin-2-one] | 92 | 25
Cc1cc2c(cc1Cc1ccc(-n3cccn3)cc1)C(=O)N([C@H]1CCC[C@@H]1O)C2 [Example 4, 2-((1S,2S)-2-hydroxycyclopentyl)-5-methyl-6-(4-(1H-pyrazol-1-yl)benzyl)isoindolin-1-one] | 98 | 19
Cc1c(Cc2ccc(-n3cccn3)cc2)cc2c(c1C)CN(CC1CCCO1)C2=O (stereo not drawn) [Example 80, 4,5-dimethyl-6-(4-(1H-pyrazol-1-yl)benzyl)-2-(tetrahydrofuran-2-ylmethyl)isoindolin-1-one] | 90 | 14
CCc1cc2c(cc1Cc1ccc(-c3cn(C)nn3)cc1)C(=O)N([C@H]1CCC[C@@H]1O)C2 [Example 119, 5-ethyl-2-((1S,2S)-2-hydroxycyclopentyl)-6-(4-(1-methyl-1H-1,2,3-triazol-4-yl)benzyl)isoindolin-1-one] | 91 | 3.1
Cc1c(Cc2ccc(-n3cccn3)cc2)cc2c(c1F)CN([C@H]1CCC[C@@H]1O)C2=O (racemic) [Example 79, rac-4-fluoro-2-(trans-2-hydroxycyclopentyl)-5-methyl-6-(4-(1H-pyrazol-1-yl)benzyl)isoindolin-1-one] | 93 | 72
Cc1c(Cc2ccc(-n3cccn3)cc2F)cc2c(c1C)CN(CC(C)(C)O)C2=O [Example 121, 6-(2-fluoro-4-(1H-pyrazol-1-yl)benzyl)-2-(2-hydroxy-2-methylpropyl)-4,5-dimethylisoindolin-1-one] | 89 | 22
Cn1cc(-c2ccc(Cc3cc4c(cc3Cl)CN([C@H]3CCCC[C@@H]3O)C4=O)cc2)cn1 (racemic) [Example 75, rac-5-chloro-2-(trans-2-hydroxycyclohexyl)-6-(4-(1-methyl-1H-pyrazol-4-yl)benzyl)isoindolin-1-one] | 97 | 23
